In PubChem BioAssay AID624360 (Broad Institute, 2012):
Inconclusive results are not listed. Calls of active or inactive are those of the source.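 How the source made its calls: active means fitted curve falls past -35% activity change at a concentration under twice the top valid dose, in every test run; inconclusive means test runs disagree, some active and some inactive; inactive means all test runs inactive, including signal rising instead of falling.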

Assay: IL-1beta-induced NF-kB reporter signal decrease – LMP1 TES2-inducible cells, luciferase, dry powder, selectivity assay for EBV LMP1 NF-kB inhibitor project, dose response (AID 624360)
[1] = HEK293 IL-1beta-induced NF-kB luciferase reporter (LMP1 TES2-inducible cell line), 16 h
[2] = HEK293 IL-1beta-induced NF-kB luciferase reporter (LMP1 TES2-inducible cell line), 16 h, at 26 µM (top of the series)

SMILES | AC35 [1] [nM] | other results
C/C(=N\NC(=S)N1CCCCC1)c1cccc(C)n1 | 343 | 
S=C(N/N=C(\c1ccccc1)c1ccccn1)N(Cc1ccccn1)Cc1ccccn1 | 769 | 
Cc1c(NC(=O)c2cccc(NC(=O)COc3ccccc3C#N)c2)c(=O)n(-c2ccccc2)n1C |  | activity change, negative = inhibition [2]: 14.8% (inactive)
C[C@@H]1CN([C@@H](C)CO)C(=O)c2cc(NC(=O)Nc3ccc(C(F)(F)F)cc3)ccc2O[C@@H](C)CCCCO[C@H]1CN(C)Cc1ccc(C(F)(F)F)cc1 |  | activity change, negative = inhibition [2]: 12.7% (inactive)
Fc1ccc2c(c1)c1nnc(SCCN3CCOCC3)nc1n2Cc1ccccc1 | 4490 | 
CC1CN(C(=O)CSc2nnc3c4ccccc4n(Cc4cccc(Cl)c4)c3n2)CCN1C(=O)c1ccccc1F (centres undefined) | 9280 | 
C[C@H](CO)N1C[C@H](C)[C@@H](CN(C)Cc2ccc(-c3ccccc3)cc2)Oc2ccc(NC(=O)Nc3cccc4ccccc34)cc2CC1=O | 4640 | 
C/C(=N\NC(=S)N1CC2CCC(CC2)C1)c1ccccn1 | 913 | 
CC(C)=CCN(C(=O)C#Cc1ccccc1)[C@H](CO)c1ccccc1 | 2500 | 
C/C=C/C/C=C/CCC(=O)[C@H]1O[C@H]1C(N)=O | 7670 | 
C[C@@H]1CN([C@@H](C)CO)C(=O)c2cccc(NC(=O)Nc3cccc4ccccc34)c2O[C@H]1CN(C)C(=O)Nc1ccc(C(F)(F)F)cc1 | 11400 | 
C=C1C[C@]23C[C@@]1(O)CC[C@H]2[C@@]12C=C[C@H](O)[C@@](C)(C(=O)O1)[C@H]2[C@@H]3C(=O)O |  | activity change, negative = inhibition (HEK293 IL-1beta-induced NF-kB luciferase reporter (LMP1 TES2-inducible cell line), 16 h, at 15 µM (top of the series)): 13.6% (inactive)
C/C(=N\NC(=S)N1CC2CCC(CC2)C1)c1cnccn1 | 86.2 | 
CCC(Sc1nnc2c3ccccc3n(Cc3ccc(Br)cc3)c2n1)C(=O)NCCCN1CCOCC1 (centres undefined) | 2710 | 
C[C@@H]1CCCCO[C@H](CN(C)C(=O)NC2CCCCC2)[C@H](C)CN([C@@H](C)CO)C(=O)c2cc(NC(=O)C3CCCCC3)ccc2O1 | 11700 | 
COc1ccc2nc(Nc3nc(C)c(CCC(C)C)c(=O)[nH]3)nc(C)c2c1 | 2720 | 
C=CCN1Cc2ccccc2[C@@H]2OC(c3ccc(OCCCO)cc3)=N[C@]2(CCC(=O)OC(C)(C)C)C1=O |  | activity change, negative = inhibition [2]: 37.8% (inactive)
O=c1[nH]c(Nc2nc3ccccc3o2)nc2c1CCCC2 | 107000 | 
C[C@@H]1CN([C@@H](C)CO)C(=O)c2cc(NC(=O)Nc3ccc4c(c3)OCO4)ccc2O[C@H]1CN(C)CC1CCCCC1 | 2700 | 
Cc1ccc(NC(=O)C2CCN(S(=O)(=O)c3ccc4c(c3)NC(=O)C(C)S4)CC2)cc1Cl (centres undefined) | 3670 | 
CCc1ccc(/C=C2\SC(=S)N(CCCC(=O)Nc3ccccn3)C2=O)cc1 |  | activity change, negative = inhibition [2]: 40.6% (inactive)
C[C@@H]1CCCCO[C@H](CN(C)CC2CCCCC2)[C@H](C)CN([C@@H](C)CO)C(=O)c2cc(NC(=O)NC3CCCCC3)ccc2O1 |  | activity change, negative = inhibition [2]: -0.708% (inactive)

SMILES | AC35 [1] [nM] | other results
CCCSc1nnc2c3ccccc3n(Cc3ccccc3)c2n1 | 2610 | 
C/C(=N\NC(=S)N1CCC1)c1ccccn1 | 287 | 
Cc1cc(NC(=O)c2ccc3c(c2)OCCO3)no1 | 111000 | 
C/C(=N\NC(=S)N1CCCCC1)c1ccccn1 | 168 | 
Nc1ccn([C@@H]2O[C@H](CO)[C@@H](O)C2O)c(=O)n1 (some centres undefined) | 15800 | 
C[C@H](CO)N1C[C@H](C)[C@H](CN(C)C(=O)Nc2ccc(C(F)(F)F)cc2)OCCCC[C@H](C)Oc2ccc(NC(=O)Nc3ccc(F)cc3)cc2C1=O | 7850 | 
O=C1/C(=C/c2ccncc2)SC(=S)N1Cc1ccccc1 | 91500 | 
S=C(NCc1ccccn1)N/N=C/c1ccccn1 | 1980 | 
C/C(=N\NC(=S)Nc1ccccc1)c1ccccn1 | 522 | 
COc1ccccc1[C@]1(C)ON(c2ccccc2C(F)(F)F)C1=O | 8170 | 
C[C@@H]1CCCCO[C@H](CN(C)S(=O)(=O)c2ccccc2)[C@@H](C)CN([C@@H](C)CO)C(=O)c2cc(N(C)C)ccc2O1 |  | activity change, negative = inhibition [2]: 9.13% (inactive)
Cc1ccc(S(=O)(=O)Nc2ccc3c(c2)C(=O)N([C@@H](C)CO)C[C@H](C)[C@@H](CN(C)C(=O)CCC(F)(F)F)OCCCC[C@H](C)O3)cc1 | 488 | 
COc1ccc(C(=O)Nc2ccc3[nH]ccc3c2)cc1 |  | activity change, negative = inhibition [2]: 20.3% (inactive)
C/C(=N\NC(=S)N1CCCCCC1)c1ccccn1 | 213 | 
CCN1CCN(C(c2cccnc2)c2cc(Cl)c3cccnc3c2O)CC1 (centres undefined) | 5660 | 
CCc1sc(C(=O)Nc2ncccc2O)cc1C |  | activity change, negative = inhibition [2]: 6.99% (inactive)
C[C@H](CO)N1C[C@H](C)[C@@H](CN(C)CC2CC2)OCCCC[C@H](C)Oc2ccc(NC(=O)Nc3cccc4ccccc34)cc2C1=O | 1130 | 
C/C(=N\NC(=S)N1CCCC1)c1ccccn1 | 156 | 
CC12CCC3C(CC=C4CC(O)CCC43CO)C1CCC2OC(=O)c1ccccc1 (centres undefined) |  | AC35 (HEK293, 16 h): 3880 nM
c1ccc(-c2cn3c4c(sc3n2)CCCC4)cc1 |  | activity change, negative = inhibition [2]: 8.88% (inactive)
COc1ccc(-c2cc3nc4n(c(=O)c3s2)CCC4)cc1 |  | activity change, negative = inhibition [2]: 19.5% (inactive)
COc1ccc2[nH]c(C(=O)N/N=C/c3ccc(O)cc3O)cc2c1 | 6480 | 
